One may read the viability, T/C as the result in the treated group divided by that in the control group, in per cent. In general, IC50 refers to the concentration that gives 50% inhibition.

“And” between values parts separate entries of the source, which are not always exact repeats. Identical values can stand only once.

The experiment deals with DMS-114 complex spheroids with HUVEC/MSC, growth % test/control. The experiment is described as follows: Anticancer human tumor DMS-114 cell line growth inhibition [AhR].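 On all read-outs here: spheroids exposed to agents for 7 days before readout.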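 On viability, T/C: 100% = DMSO vehicle control wells.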 Particulars: for viability, T/C: stronger effect = lower value. An excerpt: Multicellular complex tumor spheroid response to aryl hydrocarbon receptor antagonists in combination with a variety of drugs and investigational agents in selected tumor cell lines
The current study was undertaken to assess response to aryl hydrocarbon receptor antagonists in combination with standard-of-care drugs and investigational agents in solid tumor complex spheroid models. Complex spheroids include a stromal component modeled by human endothelial cells (HUVEC) and fibroblasts modeled by human mesenchymal stem cells (MSCs). The concentration ranges selected for each drug and investigational agent were based upon clinically achievable concentrations if the clinical Cmax of the agent was known.
Compounds. The drugs and investigational agents: BAY 2416964 (NSC825713), GNF351 (NSC835774), CH-223191 (NSC835775), CPI-455 (NSC825282), aza-TdCyd (NSC777586), decitabine (NSC127716), belinostat (NSC758774), entinostat (NSC756642), pevonedistat (NSC761192), tazemetostat (NSC777109), talazoparib (NSC765396), olaparib (NSC753686), selinexor (NSC780203), nedisertib (M3814, NSC802822), bortezomib (NSC756655), venetoclax (NSC766270), doxorubicin (NSC123127), elimusertib (BAY189344, NSC800525), ceralasertib (AZD6738, NSC777638), TAK-243 (NSC785004), alisertib (NSC759677), etoposide (NSC141540), topotecan (NSC609699), eribulin (NSC707389), gemcitabine (NSC613327), carboplatin (NSC241240), cisplatin (NSC119875), and SN-38 (NSC673596) were obtained from the National Cancer Institute (NCI) Developmental Therapeutics Program Chemical Repository (32). The FDA-approved anticancer drug set is available from the Developmental Therapeutics Program at https://dtp.cancer.gov/organization/dscb/obtaining/available plates.htm. […] The stock solutions were prepared in dimethyl sulfoxide (DMSO, Sigma-Aldrich, St. Louis, MO, cat. D2650), except for the platinum compounds which were prepared in saline (Quality Biological, Gaithersburg, MD, cat. 114-055-101), at 800-fold the tested concentration and stored at -70 degrees C prior to their use. All drugs and investigational agents were tested over a range starting from a high concentration at or near the clinical Cmax and decreasing in half-log increments. If the clinical Cmax for an agent had not been determined, the highest concentration tested was 10 microM (Table 1).
Cell Culture. All cells were maintained in an incubator at 37 degrees C and 5% CO2 with 95% humidity. The PDC lines were cultured according to standard operating procedures established by the NCI PDMR (https://pdmr.cancer.gov). Briefly, all PDCs were thawed and cultured in Matrigel-coated flasks prepared with a working solution of 1X Ham's F-12 nutrient mix, without supplementation (Invitrogen, Waltham, MA, cat. 11765054), 100 U/mL penicillin-streptomycin (Invitrogen, cat. 15140122), and 2.5% Matrigel (Corning Inc., Corning, NY, cat. 354248) for the first three passages. All PDCs were cultured in complete DMEM/F-12 media containing advanced DMEM/F-12 (Invitrogen, cat. 12634028), 4.9% defined fetal bovine serum, heat inactivated (HyClone Laboratories Inc., Logan, UT, cat. SH30070.03HI), 389 ng/mL hydrocortisone (Sigma-Aldrich, cat. H4001), 9.7 ng/mL human EGF recombinant protein (Invitrogen, cat. PHG0313), 23.4 microg/mL adenine (Sigma-Aldrich, cat. A2786), 97.3 U/mL penicillin-streptomycin (Invitrogen, cat. 15140122), 1.9 mM L-glutamine (Invitrogen, cat. 25030081), and 9.7 microM Y-27632 dihydrochloride (Tocris Bioscience, Bristol, United Kingdom, cat. 1254). The PDCs were cultured in complete DMEM/F12 media without 10 microM Y-27632 dihydrochloride for at least two passages prior to the screen. The established cell lines NCI-H1341 and […] were cultured in DMEM/F-12, HEPES (Invitrogen, cat. 11330032), 5% defined fetal bovine serum (HyClone Laboratories Inc., cat. SH30070.03), ITS premix universal culture supplement [insulin (5 microg/mL), transferrin (5 microg/mL), and selenious acid (5 ng/mL)] […]

[1] abbreviates: curve of first compound, second compound 0.1 µM.
Where [2] appears, read: curve of first compound, second compound 0.316 µM.
Where [3] appears, read: curve of first compound, second compound 1 µM.
Where [4] appears, read: curve of first compound, second compound 3.16 µM.
[5] abbreviates: curve of first compound, second compound 10 µM.
[6] abbreviates: second compound 0.1 µM, first compound 0.0316 µM.
Setting [7] is: second compound 0.1 µM, first compound 0.1 µM.
[8] abbreviates: second compound 0.1 µM, first compound 0.316 µM.
The mark [9] stands for this setting: second compound 0.1 µM, first compound 1 µM.
Where [10] appears, read: second compound 0.316 µM, first compound 0.0316 µM.
Setting [11] is: second compound 0.316 µM, first compound 0.1 µM.
Where [12] appears, read: second compound 0.316 µM, first compound 0.316 µM.
[13] abbreviates: second compound 0.316 µM, first compound 1 µM.
[14] abbreviates: second compound 1 µM, first compound 0.0316 µM.
Setting [15] is: second compound 1 µM, first compound 0.1 µM.
Where [16] appears, read: second compound 1 µM, first compound 0.316 µM.
Setting [17] is: second compound 1 µM, first compound 1 µM.
[18] abbreviates: second compound 3.16 µM, first compound 0.0316 µM.
The mark [19] stands for this setting: second compound 3.16 µM, first compound 0.1 µM.
[20] abbreviates: second compound 3.16 µM, first compound 0.316 µM.
Where [21] appears, read: second compound 3.16 µM, first compound 1 µM.
The mark [22] stands for this setting: second compound 10 µM, first compound 0.0316 µM.
The mark [23] stands for this setting: second compound 10 µM, first compound 0.1 µM.
Setting [24] is: second compound 10 µM, first compound 0.316 µM.
Where [25] appears, read: second compound 10 µM, first compound 1 µM.

In the case of `CC(C)c1c(-c2ccccc2)nc2c(C#N)c[nH]n2c1=O`, the viability, T/C (compound 0.0316 µM) is 104% and 106% and 108%; the viability, T/C (compound 0.1 µM) is 117% and 104% and 101%; the viability, T/C (compound 0.316 µM) is 108% and 99.2% and 105%; the viability, T/C (compound 1 µM) is 105% (2×) and 96.3%; the viability, T/C (compound 3.16 µM) is 116% and 99.7% and 105%; the viability, T/C (compound 10 µM) is 111% and 102% (2×). For the same compound, the 50% inhibitory concentration (IC50) (curve of compound) is over 10000 nM.
`CC(CO)NC(=O)c1cc(-c2ccc(Cl)cc2)nn(-c2cnn(C)c2)c1=O` (centres undefined): the viability, T/C is 98.2% [middle of 20 runs] (compound 0.1 µM) and 95.8% [middle of 21 runs] (compound 1 µM). Further, the IC50 (compound alone, run of 07/12/2022) was over 10000 nM.
Consider `CC1COCCN1c1cc(C2(S(C)(=N)=O)CC2)nc(-c2ccnc3[nH]ccc23)n1` (centres undefined), for which the viability, T/C is, setting by setting: (compound 0.0316 µM) 99.2% and 97.3% and 90.2%; (compound 0.1 µM) 114% and 106% and 101%; (compound 0.316 µM) 99.1% and 96.2% and 87.3%; (compound 1 µM) 98.6% and 98.9% and 78.1%; (compound 3.16 µM) 66.1% and 101% and 65.9%; (compound 10 µM) 27.7% and 76.4% and 33.8%. For the setting “curve of compound”, the IC50 was 5130 nM and > 10000 nM and 5460 nM.
Regarding `COc1ccc([C@@H](O)c2cc(-c3ncnc4cc(N5CCOCC5)ccc34)c(F)cc2Cl)nn1`, the viability, T/C reads like this: (compound 0.0316 µM) 104% and 102% and 101%; (compound 0.1 µM) 107% and 101% and 103%; (compound 0.316 µM) 96.9% and 107% and 112%; (compound 1 µM) 97.4% and 114% and 94.8%; (compound 3.16 µM) 102% and 110% and 95.2%; (compound 10 µM) 56% and 96.2% and 56.6%. In addition, for the setting “curve of compound”, the IC50 is over 10000 nM.
With `Cc1ccccc1N=Nc1ccc(NC(=O)c2ccnn2C)c(C)c1`, the viability, T/C is 99.4% [middle of 20 runs] (compound 0.1 µM), 101% [middle of 20 runs] (compound 0.316 µM), 97.6% [middle of 20 runs] (compound 1 µM) and 94% [middle of 20 runs] (compound 10 µM). Further, the concentration for half-maximal inhibition (IC50) (compound alone, run of 07/26/2022) is over 10000 nM.
With `COc1cccc2c1C(=O)c1c(O)c3c(c(O)c1C2=O)CC(O)(C(=O)CO)CC3OC1CC(N)C(O)C(C)O1` (centres undefined) + CC(CO)NC(=O)c1cc(-c2ccc(Cl)cc2)nn(-c2cnn(C)c2)c1=O, the IC50 is under 31.6 nM under setting [1]; 34 nM under setting [2]; under 31.6 nM under setting [3]; under 31.6 nM under setting [4]; under 31.6 nM under setting [5]. The viability, T/C was 40.4% under setting [6]; 34.1% under setting [7]; 8.85% under setting [8]; 1.01% under setting [9]; 0.27% (second compound 0.1 µM, first compound 3.16 µM); 0.6% (second compound 0.1 µM, first compound 10 µM). Further, the viability, T/C is, setting by setting: under setting [10], 51.2%; under setting [11], 31.4%; under setting [12], 8.15%; under setting [13], 0.97%; (second compound 0.316 µM, first compound 3.16 µM) 0.59%; (second compound 0.316 µM, first compound 10 µM) 0.6%. For the same compound, the viability, T/C is, setting by setting: under setting [14], 48.8%; under setting [15], 33.5%; under setting [16], 10.3%; under setting [17], 0.95%; (second compound 1 µM, first compound 3.16 µM) 0.33%; (second compound 1 µM, first compound 10 µM) 0.54%. Further, the viability, T/C reads like this: under setting [18], 43.9%; under setting [19], 35.4%; under setting [20], 9.19%; under setting [21], 0.92%; (second compound 3.16 µM, first compound 3.16 µM) 1.14%; (second compound 3.16 µM, first compound 10 µM) 0.73%. For the same compound, the viability, T/C by setting is: under setting [22], 43.4%; under setting [23], 27.3%; under setting [24], 9.28%; under setting [25], 0.38%; (second compound 10 µM, first compound 3.16 µM) 0.32%; (second compound 10 µM, first compound 10 µM) 0.4%.
Regarding `Nc1ncn(C2CC(O)C(CO)O2)c(=O)n1` (centres undefined) + CC(CO)NC(=O)c1cc(-c2ccc(Cl)cc2)nn(-c2cnn(C)c2)c1=O, the IC50 reads like this: under setting [1], over 1000 nM; under setting [2], over 1000 nM; under setting [3], over 1000 nM; under setting [4], over 1000 nM; under setting [5], over 1000 nM. Also, the viability, T/C reads like this: (second compound 0.1 µM, first compound 0.00316 µM) 102%; (second compound 0.1 µM, first compound 0.01 µM) 95.6%; under setting [6], 97.8%; under setting [7], 96.5%; under setting [8], 85%; under setting [9], 61.6%. Further, the viability, T/C is 122% (second compound 0.316 µM, first compound 0.00316 µM); 101% (second compound 0.316 µM, first compound 0.01 µM); 93.9% under setting [10]; 80% under setting [11]; 79.8% under setting [12]; 59.8% under setting [13]. For the same compound, the viability, T/C is, setting by setting: (second compound 1 µM, first compound 0.00316 µM) 91.3%; (second compound 1 µM, first compound 0.01 µM) 105%; under setting [14], 90.3%; under setting [15], 93.8%; under setting [16], 83.3%; under setting [17], 72.3%. Also, the viability, T/C is 109% (second compound 3.16 µM, first compound 0.00316 µM); 104% (second compound 3.16 µM, first compound 0.01 µM); 80.1% under setting [18]; 94.5% under setting [19]; 85.1% under setting [20]; 70.7% under setting [21]. The viability, T/C runs as follows: (second compound 10 µM, first compound 0.00316 µM) 101%; (second compound 10 µM, first compound 0.01 µM) 99.7%; under setting [22], 93.4%; under setting [23], 98%; under setting [24], 91.8%; under setting [25], 76.5%.
